Data: PubChem BioAssay (NCI)
Where “and” joins values, the source holds several entries; their conditions need not be identical. Identical values can stand only once.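 All cell lines were grown in 96-well plates and treated with compound for 48 hours. At the GI50, growth is halved. TGI is the concentration that stops growth completely.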

What was measured:
Assay in all cases: DTP human tumour cell line panel, 48 h
PC-3 prostate = test system: PC-3 prostate
DU-145 prostate = test system: DU-145 prostate
SNB-75 CNS = test system: SNB-75 CNS
SF-539 CNS = test system: SF-539 CNS
HOP-92 NSCLC = test system: HOP-92 NSCLC
A498 renal = test system: A498 renal
SNB-19 CNS = test system: SNB-19 CNS
BT-549 breast = test system: BT-549 breast
MCF7 breast = test system: MCF7 breast
NCI-H226 lung = test system: NCI-H226 lung

OCc1cn(Cc2cccc(Cl)c2)c2ccccc12
GI50 (PC-3 prostate): 15.5 µM | TGI (PC-3 prostate): 39.9 µM | GI50 (DU-145 prostate): 11.6 µM | TGI (DU-145 prostate): 47.8 µM | GI50 (SNB-75 CNS): 7.7 µM | TGI (SNB-75 CNS): 29 µM | GI50 (SF-539 CNS): 13.5 µM | TGI (SF-539 CNS): 30.9 µM | GI50 (HOP-92 NSCLC): 1.55 µM | TGI (HOP-92 NSCLC): 17.4 µM | GI50 (A498 renal): 0.0142 µM | TGI (A498 renal): 0.0305 µM | GI50 (SNB-19 CNS): 22.5 µM | TGI (SNB-19 CNS): > 96.5 µM | GI50 (BT-549 breast): 6.75 µM | TGI (BT-549 breast): 23.1 µM | GI50 (MCF7 breast): 0.0488 µM | TGI (MCF7 breast): 27.8 µM | GI50 (NCI-H226 lung): 0.0313 µM | TGI (NCI-H226 lung): 0.222 µM

Cc1cn(C2CC(F)C(CO)O2)c(=O)[nH]c1=O (stereo not given)
GI50 (PC-3 prostate): > 100 µM | TGI (PC-3 prostate): > 100 µM | GI50 (DU-145 prostate): > 100 µM | TGI (DU-145 prostate): > 100 µM | GI50 (HOP-92 NSCLC): > 100 µM | TGI (HOP-92 NSCLC): > 100 µM | GI50 (BT-549 breast): > 100 µM | TGI (BT-549 breast): > 100 µM | GI50 (MCF7 breast): > 100 µM | TGI (MCF7 breast): > 100 µM | GI50 (NCI-H226 lung): > 100 µM | TGI (NCI-H226 lung): > 100 µM

C[C@]12CCC3[C@@H](C[C@@H]4SC(Nc5ccccc5)=N[C@@]45CC(=O)CC[C@]35C)[C@@H]1CCC2=O (stereo not given in full)
GI50 (PC-3 prostate): 5.52 µM | TGI (PC-3 prostate): 63.7 µM | GI50 (DU-145 prostate): 4.34 µM | TGI (DU-145 prostate): 40.9 µM | GI50 (SNB-75 CNS): 5.4 µM | TGI (SNB-75 CNS): 72.5 µM | GI50 (SF-539 CNS): 3.04 µM | TGI (SF-539 CNS): 13.3 µM | GI50 (HOP-92 NSCLC): 18.7 µM | TGI (HOP-92 NSCLC): 67.9 µM | GI50 (A498 renal): 28.8 µM | TGI (A498 renal): > 100 µM | GI50 (SNB-19 CNS): 12.9 µM | TGI (SNB-19 CNS): > 100 µM | GI50 (BT-549 breast): 4.58 µM | TGI (BT-549 breast): 38.9 µM | GI50 (MCF7 breast): 3.58 µM | TGI (MCF7 breast): 32.8 µM | GI50 (NCI-H226 lung): 7.36 µM | TGI (NCI-H226 lung): 45 µM

Nc1ccc2c(SCCSc3c4ccccc4nc4cc(N)ccc34)c3ccccc3nc2c1
TGI (PC-3 prostate): > 100 µM | TGI (DU-145 prostate): > 100 µM | TGI (SNB-75 CNS): > 100 µM | TGI (SF-539 CNS): > 100 µM | TGI (HOP-92 NSCLC): > 100 µM | TGI (SNB-19 CNS): > 100 µM | TGI (BT-549 breast): > 100 µM | TGI (MCF7 breast): > 100 µM | TGI (NCI-H226 lung): > 100 µM

COc1c(O)c2c(c3cc(C(=O)N4CCc5c4c(O)c(OC)c4[nH]c(C(=O)N6CC7CC78C6=CC(=O)c6[nH]cc(C)c68)cc54)[nH]c13)CCN2C(N)=O (stereo not given)
TGI (PC-3 prostate): 10 µM | TGI (DU-145 prostate): > 100 µM | TGI (SF-539 CNS): 12.1 nM and 897 nM and 0.007 µg/mL | GI50 (HOP-92 NSCLC): 8.1 ng/mL | TGI (HOP-92 NSCLC): 28.8 nM and 0.0401 µg/mL | TGI (A498 renal): 6.94 nM and 247 nM and 0.0354 µg/mL | TGI (SNB-19 CNS): 76.8 nM and 3.69 µM and 0.185 µg/mL | TGI (BT-549 breast): 5.01 µM | TGI (MCF7 breast): 0.397 µM | TGI (NCI-H226 lung): 1.47 nM and 276 nM and 0.0163 µg/mL

O=C1C(Cl)=C(Cl)C(=O)N1C1C2CC3CC(C2)CC1C3 (stereo not given)
TGI (SNB-75 CNS): > 100 µM | TGI (SF-539 CNS): > 100 µM | TGI (HOP-92 NSCLC): > 100 µM | TGI (A498 renal): > 100 µM | TGI (SNB-19 CNS): > 100 µM | TGI (NCI-H226 lung): > 100 µM

CC(C)N(C(=O)C12C3C4C5(C#N)C3C1(I)C5C42I)C(C)C (stereo not given)
TGI (SNB-75 CNS): > 100 µM | TGI (SF-539 CNS): > 100 µM | TGI (HOP-92 NSCLC): > 100 µM | TGI (A498 renal): > 100 µM | TGI (SNB-19 CNS): > 100 µM | TGI (NCI-H226 lung): > 100 µM

C1CC[N-]CC1.C1CC[N-]CC1.C1CC[N-]CC1.C1CC[N-]CC1.[Cl][Rh][Cl]
GI50 (DU-145 prostate): 6.3 µM | TGI (DU-145 prostate): 53.8 µM | GI50 (SNB-75 CNS): 6.69 µM | TGI (SNB-75 CNS): 80.3 µM | GI50 (SF-539 CNS): 5.15 µM | TGI (SF-539 CNS): > 100 µM | GI50 (HOP-92 NSCLC): 4.39 µM | TGI (HOP-92 NSCLC): 22.1 µM | GI50 (A498 renal): 15.6 µM | TGI (A498 renal): 55.2 µM | GI50 (SNB-19 CNS): 4.75 µM | TGI (SNB-19 CNS): > 100 µM | GI50 (BT-549 breast): 5.6 µM | TGI (BT-549 breast): 19.3 µM | GI50 (MCF7 breast): 10.2 µM | TGI (MCF7 breast): > 100 µM | GI50 (NCI-H226 lung): 4.47 µM | TGI (NCI-H226 lung): > 100 µM

CCCCn1c2cc(OCc3cn(-c4ccc(Cl)cc4)nn3)ccc2c2ccnc(C)c21
GI50 (PC-3 prostate): 7.85 µM | TGI (PC-3 prostate): > 33.3 µM | GI50 (DU-145 prostate): 15.2 µM | TGI (DU-145 prostate): > 33.3 µM | GI50 (SNB-75 CNS): 5.09 µM | TGI (SNB-75 CNS): 13.1 µM | GI50 (SF-539 CNS): 5.11 µM | TGI (SF-539 CNS): 10.3 µM | GI50 (HOP-92 NSCLC): 4.22 µM | TGI (HOP-92 NSCLC): 16.3 µM | GI50 (A498 renal): 5.08 µM | TGI (A498 renal): 14.1 µM | GI50 (SNB-19 CNS): 14.1 µM | TGI (SNB-19 CNS): > 33.3 µM | GI50 (MCF7 breast): 7.14 µM | TGI (MCF7 breast): > 33.3 µM | GI50 (NCI-H226 lung): 5.51 µM | TGI (NCI-H226 lung): 14.1 µM

O=C1CCC(Cc2ccc(Cl)cc2Cl)C(=O)N1 (stereo not given)
TGI (PC-3 prostate): > 100 µM | TGI (DU-145 prostate): > 100 µM | TGI (SNB-75 CNS): > 100 µM | TGI (SF-539 CNS): > 100 µM | TGI (HOP-92 NSCLC): > 100 µM | TGI (SNB-19 CNS): > 100 µM | TGI (BT-549 breast): > 100 µM | TGI (MCF7 breast): > 100 µM | TGI (NCI-H226 lung): > 100 µM

N[C@@H](Cc1c[nH]c2ccccc12)C(=O)NC1CCN(C(=O)c2c[nH]c3ccccc23)CC1
GI50 (PC-3 prostate): > 100 µM | TGI (PC-3 prostate): > 100 µM | GI50 (DU-145 prostate): 72.2 µM | TGI (DU-145 prostate): > 100 µM | GI50 (SNB-75 CNS): 37.4 µM | TGI (SNB-75 CNS): > 100 µM | GI50 (SF-539 CNS): > 100 µM | TGI (SF-539 CNS): > 100 µM | GI50 (HOP-92 NSCLC): 71 µM | TGI (HOP-92 NSCLC): > 100 µM | GI50 (SNB-19 CNS): 99.8 µM | TGI (SNB-19 CNS): > 100 µM | GI50 (BT-549 breast): > 100 µM | TGI (BT-549 breast): > 100 µM | GI50 (MCF7 breast): > 100 µM | TGI (MCF7 breast): > 100 µM | GI50 (NCI-H226 lung): > 100 µM | TGI (NCI-H226 lung): > 100 µM

CCN1C2=NC(=O)N(C)C(=O)C2(Cl)C(C(SC)S(=O)(=O)c2ccc(C)cc2)c2ccccc21 (stereo not given)
TGI (SNB-75 CNS): 53.7 µM | TGI (SF-539 CNS): > 100 µM | TGI (HOP-92 NSCLC): 71.3 µM | TGI (A498 renal): > 100 µM | TGI (SNB-19 CNS): > 100 µM | TGI (NCI-H226 lung): > 100 µM

Clc1ccc(Cl)c2[s+]snc12
TGI (SNB-75 CNS): > 100 µM | TGI (SF-539 CNS): > 100 µM | TGI (HOP-92 NSCLC): > 100 µM | TGI (A498 renal): > 100 µM | TGI (SNB-19 CNS): > 100 µM | TGI (NCI-H226 lung): > 100 µM

Cc1c(C#N)cccc1-c1cc(-c2cn(Cc3cccc(C(C)(C)O)n3)nn2)nc(N)n1
GI50 (PC-3 prostate): 17.7 µM | TGI (PC-3 prostate): 87.5 µM | GI50 (DU-145 prostate): 37.1 µM | TGI (DU-145 prostate): > 100 µM | GI50 (SNB-75 CNS): 2.96 µM | TGI (SNB-75 CNS): 39 µM | GI50 (SF-539 CNS): 39.6 µM | TGI (SF-539 CNS): > 100 µM | GI50 (SNB-19 CNS): 47.4 µM | TGI (SNB-19 CNS): > 100 µM | GI50 (BT-549 breast): 14.9 µM | TGI (BT-549 breast): 69.1 µM | GI50 (MCF7 breast): 22.4 µM | TGI (MCF7 breast): > 100 µM | GI50 (NCI-H226 lung): 22.7 µM | TGI (NCI-H226 lung): 91.9 µM

COC(=O)C1CC(C(=O)OC)c2nc3cc(C)ccc3nc21 (stereo not given)
TGI (SNB-75 CNS): > 100 µM | TGI (SF-539 CNS): > 100 µM | TGI (HOP-92 NSCLC): > 100 µM | TGI (A498 renal): > 100 µM | TGI (SNB-19 CNS): > 100 µM | TGI (NCI-H226 lung): > 100 µM

Oc1ccc(Cc2ccc(O)c3ncccc23)c2cccnc12
GI50 (PC-3 prostate): 0.0583 µM | TGI (PC-3 prostate): 53.2 µM | GI50 (DU-145 prostate): 0.0564 µM | TGI (DU-145 prostate): > 100 µM | GI50 (SNB-75 CNS): 0.0368 µM | TGI (SNB-75 CNS): > 100 µM | GI50 (HOP-92 NSCLC): 0.0114 µM | TGI (HOP-92 NSCLC): 0.0513 µM | GI50 (A498 renal): 0.223 µM | TGI (A498 renal): 0.706 µM | GI50 (SNB-19 CNS): 0.0361 µM | TGI (SNB-19 CNS): 29.6 µM | GI50 (BT-549 breast): 0.0382 µM | TGI (BT-549 breast): > 100 µM | GI50 (MCF7 breast): 0.0524 µM | TGI (MCF7 breast): > 100 µM | GI50 (NCI-H226 lung): 0.373 µM | TGI (NCI-H226 lung): 42.7 µM

O=C1c2cccc3cc([N+](=O)[O-])cc(c23)C(=O)N1CCNCCNCCNCCN1C(=O)c2cccc3cc([N+](=O)[O-])cc(c23)C1=O
TGI (SNB-75 CNS): 0.133 µM | TGI (SF-539 CNS): 0.304 µM and 0.357 µM | TGI (HOP-92 NSCLC): 0.112 µM | GI50 (A498 renal): < 0.001 µM | TGI (A498 renal): 0.227 µM | TGI (SNB-19 CNS): 2.34 µM and 0.926 µM | TGI (NCI-H226 lung): 0.309 µM and 0.315 µM
